Measured values from ChEMBL document CHEMBL4680101, “Discovery and Optimization of Allosteric Inhibitors of Mutant Isocitrate Dehydrogenase 1 (R132H IDH1) Displaying Activity in Human Acute Myeloid Leukemia Cells” (J Med Chem, 2016).

Target: Isocitrate dehydrogenase [NADP] cytoplasmic (Homo sapiens, UniProt O75874, R132H)
Test: Inhibition of IDH1 R132H mutant (unknown origin) using alpha-ketoglutarate and NADPH incubated for 60 mins by fluorescence based assay

Isocitrate dehydrogenase [NADP] cytoplasmic, sequence (O75874 2-414 R132H limits assumed): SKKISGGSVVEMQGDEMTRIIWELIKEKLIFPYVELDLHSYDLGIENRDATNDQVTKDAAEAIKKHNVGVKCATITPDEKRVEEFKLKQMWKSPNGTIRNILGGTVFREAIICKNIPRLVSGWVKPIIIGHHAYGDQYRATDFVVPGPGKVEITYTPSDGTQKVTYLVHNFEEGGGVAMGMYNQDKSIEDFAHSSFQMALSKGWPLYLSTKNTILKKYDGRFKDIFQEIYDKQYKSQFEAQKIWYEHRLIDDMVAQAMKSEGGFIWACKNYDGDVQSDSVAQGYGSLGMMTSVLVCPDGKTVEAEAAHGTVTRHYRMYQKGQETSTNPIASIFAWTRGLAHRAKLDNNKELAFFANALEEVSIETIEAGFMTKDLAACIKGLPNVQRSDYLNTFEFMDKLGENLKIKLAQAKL

| IC50 [µM] | Structure (SMILES) |
| --- | --- |
| 9.9 | O=C(O)C[C@@H]1CCCN(c2ccc(C(=O)NC3CCCCC3)c(OCc3cccc(Cl)c3)n2)C1 |
| 8.8 | O=C(O)C[C@@H]1CCCN(c2ccc(C(=O)NC3CCCCC3)c(OCc3ccc(F)cc3)n2)C1 |
| 7.4 | CC(C)CCOc1nc(N2C[C@@H]3[C@H](C2)[C@H]3C(=O)O)ccc1C(=O)N(C)Cc1ccccc1 |
| > 50 | O=C(O)C[C@@H]1CCCN(c2ccc(C(=O)NC3CCCCC3)c(NC3CCCC3)n2)C1 |
| 27 | O=C(NC1C2CC3CC1CC(O)(C3)C2)c1ccc(N2C[C@@H]3[C@H](C2)[C@H]3C(=O)O)nc1OCc1ccccc1 (some centres undefined) |
| 13 | COc1ccccc1COc1nc(N2CCC[C@@H](CC(=O)O)C2)ccc1C(=O)NC1CCCCC1 |
| 3.1 | CC(C)CCOc1nc(N2C[C@@H]3[C@H](C2)[C@H]3C(=O)O)ccc1C(=O)NC[C@@H](O)c1ccccc1 |
| 6.5 | CC(C)CCOc1nc(N2C[C@@H]3[C@H](C2)[C@H]3C(=O)O)ccc1C(=O)NCc1cccc(Cl)c1 |
| 30 | O=C(O)C[C@@H]1CCCN(c2ccc(C(=O)NC3CCCCC3)c(OCC3CC3)n2)C1 |
| 9.7 | O=C(O)C[C@@H]1CCCN(c2ccc(C(=O)NC3CCCCC3)c(OCC3CCCCC3)n2)C1 |
| 4.4 | CC(C)CCOc1nc(N2C[C@@H]3[C@H](C2)[C@H]3C(=O)O)ccc1C(=O)N[C@@H](C)c1ccccc1 |
| > 50 | CCOc1nc(N2CCC[C@@H](CC(=O)O)C2)ccc1C(=O)NC1CCCCC1 |
| 4.5 | Cc1ccccc1COc1nc(N2C[C@@H]3[C@H](C2)[C@H]3C(=O)O)ccc1C(=O)NC1C2CC3CC1CC(O)(C3)C2 (some centres undefined) |
| 5 | CC(C)CCOc1nc(N2C[C@@H]3[C@H](C2)[C@H]3C(=O)O)ccc1C(=O)Nc1ccc(O)cc1 |
| 43 | O=C(O)C[C@@H]1CCCN(c2ccc(C(=O)NC3CCCCC3)c(OCCc3ccccc3)n2)C1 |
| 0.27 | COC12CC3CC(C1)C(NC(=O)c1ccc(N4C[C@@H]5[C@H](C4)[C@H]5C(=O)O)nc1OCCC(C)C)C(C3)C2 (some centres undefined) |
| 14 | CC(C)CCOc1nc(N2C[C@@H]3[C@H](C2)[C@H]3C(=O)O)ccc1C(=O)NC1CC2CCC1C2 (some centres undefined) |
| 8.2 | CC(C)CCOc1nc(N2C[C@@H]3[C@H](C2)[C@H]3C(=O)O)ccc1C(=O)NC1CCC(O)CC1 (some centres undefined) |
| 4.5 | Cc1ccccc1COc1nc(N2CCC[C@@H](CC(=O)O)C2)ccc1C(=O)NC1CCCCC1 |
| 11 | CC(C)CCOc1nc(Nc2cccc(C(=O)O)c2)ccc1C(=O)NC1C2CC3CC1CC(O)(C3)C2 (centres undefined) |
| 10 | O=C(O)C[C@@H]1CCCN(c2ccc(C(=O)NC3CCCCC3)c(OCc3cccc(F)c3)n2)C1 |

| IC50 [µM] | Structure (SMILES) |
| --- | --- |
| 5.8 | Cc1ccccc1[C@@H](C)Oc1nc(N2CCC[C@@H](CC(=O)O)C2)ccc1C(=O)NC1CCCCC1 |
| > 50 | CC(C)CCOc1nc(N2C[C@@H]3[C@H](C2)[C@H]3C(=O)O)ccc1C(=O)NC1C2CC3CC(C2)CC1C3 (some centres undefined) |
| 20 | O=C(O)C[C@@H]1CCCN(c2ccc(C(=O)NC3CCCCC3)c(OCC3CCC3)n2)C1 |
| 14 | CC1CC1COc1nc(N2CCC[C@@H](CC(=O)O)C2)ccc1C(=O)NC1CCCCC1 (some centres undefined) |
| 0.23 | CC(C)CCOc1nc(N2C[C@@H]3[C@H](C2)[C@H]3C(=O)O)ccc1C(=O)NC(C)C1C2CC3CC1CC(O)(C3)C2 (some centres undefined) |
| 8.6 | O=C(O)C[C@@H]1CCCN(c2ccc(C(=O)NC3CCCCC3)c(OCc3ccccc3)n2)C1 |
| 16 | CCC(C)COc1nc(N2CCC[C@@H](CC(=O)O)C2)ccc1C(=O)NC1CCCCC1 (some centres undefined) |
| 5.4 | CC(C)CCOc1nc(N2C[C@@H]3[C@H](C2)[C@H]3C(=O)O)ccc1C(=O)Nc1cccc(NS(C)(=O)=O)c1 |
| 0.81 | CC(C)CCOc1nc(Nc2csc(C(=O)O)n2)ccc1C(=O)NC1C2CC3CC1CC(O)(C3)C2 (centres undefined) |
| 5.6 | CC(C)CCOc1nc(N2C[C@@H]3[C@H](C2)[C@H]3C(=O)O)ccc1C(=O)N[C@@H](CO)c1ccccc1 |
| 8.6 | CC(C)CCOc1nc(N2C[C@@H]3[C@H](C2)[C@H]3C(=O)O)ccc1NS(=O)(=O)C1CCCCC1 |
| 3.9 | CC(C)CCOc1nc(N2C[C@@H]3[C@H](C2)[C@H]3C(=O)O)ccc1C(=O)NC1CCCCCC1 |
| > 50 | O=C(O)C[C@@H]1CCCN(c2ccc(C(=O)NC3CCCCC3)c(NCc3ccccc3)n2)C1 |
| > 50 | Cc1ccccc1CNc1nc(N2CCC[C@@H](CC(=O)O)C2)ccc1C(=O)NC1CCCCC1 |
| > 50 | CN(C)CCOc1nc(N2CCC[C@@H](CC(=O)O)C2)ccc1C(=O)NC1CCCCC1 |
| 7.6 | CC(C)(C)CCOc1nc(N2CCC[C@@H](CC(=O)O)C2)ccc1C(=O)NC1CCCCC1 |
| 12 | CC(C)CC(C)Oc1nc(N2CCC[C@@H](CC(=O)O)C2)ccc1C(=O)NC1CCCCC1 (some centres undefined) |
| 11 | C[C@H](Oc1nc(N2CCC[C@@H](CC(=O)O)C2)ccc1C(=O)NC1CCCCC1)c1ccccc1 |
| 4.6 | Cc1cccc(COc2nc(N3CCC[C@@H](CC(=O)O)C3)ccc2C(=O)NC2CCCCC2)c1 |
| 38 | Cc1cc(Cl)ccc1COc1nc(N2CCC[C@@H](CC(=O)O)C2)ccc1C(=O)NC1CCCCC1 |
| > 50 | O=C(O)C[C@@H]1CCCN(c2ccc(C(=O)NC3CCCCC3)c(OC3CCC3)n2)C1 |

| IC50 [µM] | Structure (SMILES) |
| --- | --- |
| 7.9 | CC(C)CCOc1nc(N2C[C@@H]3[C@H](C2)[C@H]3C(=O)O)ccc1C(=O)NC1CCCCC1 |
| 12 | COc1cccc(COc2nc(N3CCC[C@@H](CC(=O)O)C3)ccc2C(=O)NC2CCCCC2)c1 |
| > 50 | CC(C)CCOc1nc(N2C[C@@H]3[C@H](C2)[C@H]3C(=O)O)ccc1NC(=O)NC1CCCCC1 |
| > 50 | CC(C)CCOc1nc(N2C[C@@H]3[C@H](C2)[C@H]3C(=O)O)ccc1NC(=O)C1CCCCC1 |
| 8 | O=C(O)C[C@@H]1CCCN(c2ccc(C(=O)NC3CCCCC3)c(OCCC3CC3)n2)C1 |
| > 50 | O=C(O)C[C@@H]1CCCN(c2ccc(C(=O)NC3CCCCC3)c(NCC3CCCCC3)n2)C1 |
| 3 | CC(C)CCOc1nc(N2C[C@@H]3[C@H](C2)[C@H]3C(=O)O)ccc1C(=O)NC[C@H](O)c1ccccc1 |
| 7.7 | O=C(O)C[C@@H]1CCCN(c2ccc(C(=O)NC3CCCCC3)c(OCc3ccc(Cl)cc3)n2)C1 |
| 5.9 | C[C@@H](Oc1nc(N2CCC[C@@H](CC(=O)O)C2)ccc1C(=O)NC1CCCCC1)c1ccccc1 |
| 1.2 | CC(C)CCOc1nc(N2CC[C@H](CC(=O)O)C2)ccc1C(=O)NC1C2CC3CC1CC(O)(C3)C2 (some centres undefined) |
| 10 | CC(C)CCSc1nc(N2CCC[C@@H](CC(=O)O)C2)ccc1C(=O)NC1CCCCC1 |
| 14 | CC(C)=CCOc1nc(N2CCC[C@@H](CC(=O)O)C2)ccc1C(=O)NC1CCCCC1 |
| 6.6 | CC(C)CCOc1nc(N2C[C@@H]3[C@H](C2)[C@H]3C(=O)O)ccc1C(=O)NCc1ccc(O)cc1 |
| 17 | CC(C)CCOc1nc(N2C[C@@H]3[C@H](C2)[C@H]3C(=O)O)ccc1C(=O)NCc1ccc(Cl)cc1 |
| 3.9 | CC(C)CCOc1nc(N2C[C@@H]3[C@H](C2)[C@H]3C(=O)O)ccc1C(=O)NCCc1ccccc1 |
| 4.6 | CC(C)CCOc1nc(N2C[C@@H]3[C@H](C2)[C@H]3C(=O)O)ccc1C(=O)Nc1cccc(B(O)O)c1 |
| > 50 | CC(C)CCNc1nc(N2CCC[C@@H](CC(=O)O)C2)ccc1C(=O)NC1CCCCC1 |
| > 50 | Cc1ccc(COc2nc(N3CCC[C@@H](CC(=O)O)C3)ccc2C(=O)NC2CCCCC2)cc1 |
| > 50 | CCC(C)Oc1nc(N2CCC[C@@H](CC(=O)O)C2)ccc1C(=O)NC1CCCCC1 (some centres undefined) |
| 20 | CC(Oc1nc(N2CCC[C@@H](CC(=O)O)C2)ccc1C(=O)NC1CCCCC1)C1CC1 (some centres undefined) |
| > 50 | CC(C)CCOc1nc(Nc2nc(CC(=O)O)cs2)ccc1C(=O)NC1C2CC3CC1CC(O)(C3)C2 (centres undefined) |

| IC50 [µM] | Structure (SMILES) |
| --- | --- |
| 12 | CCCC(C)Oc1nc(N2CCC[C@@H](CC(=O)O)C2)ccc1C(=O)NC1CCCCC1 (some centres undefined) |
| 12 | CC(C)CCOc1nc(N2C[C@@H]3[C@H](C2)[C@H]3C(=O)O)ccc1C(=O)N[C@H](CO)c1ccccc1 |
| > 50 | O=C(O)C[C@@H]1CCCN(c2ccc(C(=O)NC3CCCCC3)c(OC3CCOCC3)n2)C1 |
| > 50 | COCCOc1nc(N2CCC[C@@H](CC(=O)O)C2)ccc1C(=O)NC1CCCCC1 |
| 39 | O=C(O)C[C@@H]1CCCN(c2ccc(C(=O)NC3CCCCC3)c(SCc3ccccc3)n2)C1 |
| 7 | O=C(O)C[C@@H]1CCCN(c2ccc(C(=O)NC3CCCCC3)c(OCc3ccccc3Cl)n2)C1 |
| 14 | CCC(C)(C)Oc1nc(N2CCC[C@@H](CC(=O)O)C2)ccc1C(=O)NC1CCCCC1 |
| 3.2 | CC(C)CCOc1nc(N2C[C@@H]3[C@H](C2)[C@H]3C(=O)O)ccc1C(=O)Nc1cccc(CO)c1 |
| 3.2 | O=C(NC1C2CC3CC1CC(O)(C3)C2)c1ccc(N2C[C@@H]3[C@H](C2)[C@H]3C(=O)O)nc1OCc1ccccc1Cl (some centres undefined) |
| 21 | O=C(O)C[C@@H]1CCCN(c2ccc(C(=O)NC3CCCCC3)c(SCc3ccccc3F)n2)C1 |
| 5.4 | CC(C)CCOc1nc(N2C[C@@H]3[C@H](C2)[C@H]3C(=O)O)ccc1C(=O)N[C@H](C)c1ccccc1 |
| 5.6 | CC(C)CCOc1nc(N2C[C@@H]3[C@H](C2)[C@H]3C(=O)O)ccc1C(=O)Nc1ccc(CO)cc1 |
| 6.2 | CC(C)CCOc1nc(N2C[C@@H]3[C@H](C2)[C@H]3C(=O)O)ccc1C(=O)NCc1ccncc1 |
| 13.5 | CCOC(=O)[C@H]1[C@@H]2CN(c3ccc(C(=O)NC4C5CC6CC4CC(O)(C6)C5)c(OCCC(C)C)n3)C[C@@H]21 (some centres undefined) |
| 12 | CCCCOc1nc(N2CCC[C@@H](CC(=O)O)C2)ccc1C(=O)NC1CCCCC1 |
| > 50 | Cc1ccccc1CSc1nc(N2CCC[C@@H](CC(=O)O)C2)ccc1C(=O)NC1CCCCC1 |
| 2.9 | CC(C)CCOc1nc(N2C[C@@H]3[C@H](C2)[C@H]3C(=O)O)ccc1C(=O)Nc1cccc(O)c1 |
| 3.4 | CC(C)CCOc1nc(N2CCC(C(=O)O)CC2)ccc1C(=O)NC1C2CC3CC1CC(O)(C3)C2 (centres undefined) |
| 15 | O=C(O)C[C@@H]1CCCN(c2ccc(C(=O)NC3CCCCC3)c(OCCCC(F)(F)F)n2)C1 |
| 5.6 | CC(C)CCOc1nc(N2C[C@@H]3[C@H](C2)[C@H]3C(=O)O)ccc1C(=O)NCc1cccnc1 |
| 6.3 | CC(C)CCOc1nc(N2C[C@@H]3[C@H](C2)[C@H]3C(=O)O)ccc1C(=O)NCc1cccc(O)c1 |
